Activity calls are given as the source filed them. The calls are words filed in the database; no cut-off is given here.
What was measured:
Candida albicans [1] = assay: Antifungal activity against Candida albicans SC5314 assessed as inhibition of yeast growth at <15 uM after 24 hrs by CLSI broth microdilution method; format: functional, organism-based
Candida albicans [2] = assay: Inhibition of germ tube formation in Candida albicans SC5314 assessed as reduction in yeast to hyphal conversion at 30 to 300 uM after 4 hrs by differential interference contrast microscopic analysis; format: functional, organism-based
Candida albicans [3] = assay: Inhibition of hypal growth in Candida albicans SC5314 assessed as length of germ tube at 200 uM after 6 hrs by differential interference contrast microscopic analysis (reference value: 235.2 +/- 40.4 micrometer); format: functional
Candida albicans [4] = assay: Inhibition of hypal growth in Candida albicans SC5314 assessed as length of germ tube at 200 uM measured immediately by differential interference contrast microscopic analysis (reference value: 70.3 +/- 12.3 micrometer); format: functional
Candida albicans [5] = assay: Inhibition of hypal growth in Candida albicans SC5314 assessed as length of germ tube at 200 uM after 3 hrs by differential interference contrast microscopic analysis (reference value: 149.9 +/- 22.3 micrometer); format: functional
Candida albicans [6] = assay: Antifungal activity against Candida albicans SC5314 assessed as inhibition of yeast growth at >120 uM after 24 hrs by CLSI broth microdilution method; format: functional, organism-based
Candida albicans [7] = assay: Inhibition of hypal growth in Candida albicans SC5314 assessed as length of germ tube at 200 uM after 9 hrs by differential interference contrast microscopic analysis (reference value: 223.9 +/- 24.5 micrometer); format: functional
Candida albicans [8] = assay: Inhibition of germ tube formation in Candida albicans SC5314 assessed as yeast to hyphal conversion at 30 to 300 uM after 2 hrs by differential interference contrast microscopic analysis relative to control; format: functional; set-up: scale not given: the % may be the effect or the level left
Candida albicans [9] = assay: Inhibition of germ tube formation in Candida albicans SC5314 assessed as reduction in yeast to hyphal conversion at >200 uM after 4 hrs by differential interference contrast microscopic analysis relative to control; format: functional
Candida albicans [10] = assay: Antifungal activity against Candida albicans SC5314 assessed as inhibition of yeast growth at 60 uM after 24 hrs by CLSI broth microdilution method relative to control; format: functional; conditions: SC5314, 24 h
Candida albicans [11] = assay: Antifungal activity against Candida albicans SC5314 assessed as inhibition of yeast growth at >30 uM after 24 hrs by CLSI broth microdilution method; format: functional, organism-based

Question: With O=C(O)c1cn(CCCCCCO)nn1 as the molecule, how does the inhibition (Candida albicans [1]) read?
Answer: Active

Question: What about the inhibition (Candida albicans [2]) of the same molecule?
Answer: Active

Question: For CCCCCCn1cc(C(=O)O)nn1, which Activity (Candida albicans [3]) is on record?
Answer: 207.8 um

Question: And the Activity (Candida albicans [4])?
Answer: 66.5 um

Question: What about the Activity (Candida albicans [5]) of the same molecule?
Answer: 142.8 um

Question: What about the inhibition (Candida albicans [6]) of the same molecule?
Answer: Active

Question: And the inhibition (Candida albicans [1])?
Answer: Active

Question: What about the Activity (Candida albicans [7]) of the same molecule?
Answer: 223.5 um

Question: What about the inhibition (Candida albicans [2]) of the same molecule?
Answer: Active

Question: CCCCCCCCOc1ccc(C(=O)O)cc1 was tested. Which Activity (Candida albicans [8]) did it give?
Answer: >95%

Question: With CCCCCCCCn1cc(C(=O)O)nn1 as the molecule, how does the “inhibition (INH)” value (Candida albicans [9]) read?
Answer: 95%

Question: And the Activity (Candida albicans [3])?
Answer: 54.6 um

Question: And the Activity (Candida albicans [4])?
Answer: 73.4 um

Question: What about the Activity (Candida albicans [5]) of the same molecule?
Answer: 64.4 um

Question: What about the inhibition (Candida albicans [6]) of the same molecule?
Answer: Active

Question: What about the inhibition at 60 µM (Candida albicans [10]) of the same molecule?
Answer: 90%

Question: What about the inhibition (Candida albicans [1]) of the same molecule?
Answer: Active

Question: And the Activity (Candida albicans [7])?
Answer: 74.2 um

Question: And the inhibition (Candida albicans [11])?
Answer: Active

Question: For CCCCCCCCCCn1cc(C(=O)O)nn1, which “inhibition (INH)” value (Candida albicans [9]) is on record?
Answer: 95%

Question: And the Activity (Candida albicans [3])?
Answer: 45 um

Question: And the Activity (Candida albicans [4])?
Answer: 71.8 um

Question: What about the Activity (Candida albicans [5]) of the same molecule?
Answer: 59.1 um

Question: And the inhibition at 60 µM (Candida albicans [10])?
Answer: 90%

Question: What about the inhibition (Candida albicans [1]) of the same molecule?
Answer: Active

Question: And the Activity (Candida albicans [7])?
Answer: 53.3 um

Question: And the inhibition (Candida albicans [11])?
Answer: Active

Question: For CCCCCCCCC/C=C\C(=O)O, which Activity (Candida albicans [3]) is on record?
Answer: 63.5 um

Question: And the Activity (Candida albicans [4])?
Answer: 65.3 um

Question: What about the Activity (Candida albicans [5]) of the same molecule?
Answer: 73.3 um

Question: What about the inhibition (Candida albicans [1]) of the same molecule?
Answer: Active

Question: What about the Activity (Candida albicans [7]) of the same molecule?
Answer: 64.2 um

Question: What about the inhibition (Candida albicans [2]) of the same molecule?
Answer: Active

Question: And the inhibition (Candida albicans [11])?
Answer: Active

Question: With CCCCCCCCc1ccc(C(=O)O)s1 as the molecule, how does the Activity (Candida albicans [8]) read?
Answer: >95%

— ChEMBL document CHEMBL4251548, “Efficient click chemistry towards fatty acids containing 1,2,3-triazole: Design and synthesis as potential antifungal drugs for Candida albicans” (2017)
